Like-named read-outs stand apart in the source and are kept apart here.
Experiments:
[1] = target: full length recombinant Pim-2 (Homo sapiens (Human), UniProt Q9P1W9); assay: Pim enzyme assay (HTRF, phosphorylation of biotinylated-BAD (S112) peptide), Pim-2; format: biochemical; conditions: read-out: Pim2_IC50
[2] = test system: Pim-2 stably transfected U2OS human osteogenic sarcoma line; assay: Pim cell assay U2OS (phospho-BAD normalized against total BAD), Pim-2 transfected; format: cell-based; conditions: Homo sapiens, read-out: U2OS Pim2_Cell_IC50
[3] = target: full length recombinant Pim-1 (Homo sapiens (Human), UniProt P11309); assay: Pim enzyme assay (HTRF, phosphorylation of biotinylated-BAD (S112) peptide), Pim-1; format: biochemical
[4] = target: full length recombinant Pim-3 (Homo sapiens (Human), UniProt Q86V86); assay: Pim enzyme assay (HTRF, phosphorylation of biotinylated-BAD (S112) peptide), Pim-3; format: biochemical; conditions: Pim-3 enzyme assay; read-out: Pim3 IC50
How it was run: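 Full-length recombinant Pim-3 phosphorylated biotinylated BAD (S112) peptide in 60 mM Hepes pH 7.0, 0.05% BSA, 2 mM DTT for 1 h 30 min at 22 °C. After EDTA stop, HTRF was read with Eu anti-phospho-BAD and streptavidin-APC. IC50 came from 4-parameter logistic fit of percent-of-control values.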

[5] = test system: Pim-1 stably transfected U2OS human osteogenic sarcoma line; assay: Pim cell assay U2OS (phospho-BAD normalized against total BAD), Pim-1 transfected; format: cell-based; conditions: Homo sapiens, U2OS
KMS-12-BM myeloma cells = assay: Pim cell assay KMS12 (phospho-BAD and total BAD); format: cell-based; conditions: Homo sapiens, 2 h
Description: The assay for determination of the antiproliferative activity of multiple Pim inhibitors in the KMS-12-BM myeloma cells measures levels of phospho-BAD and total BAD. It was conducted as follows: […] The cells were then incubated overnight at 37° C., 5% CO2. […] This dilution in DMSO was then diluted again into cell growth medium. […] The cell plates were then incubated with compound for 2 hours at 37° C., 5% CO2. After a two h incubation, the compound-containing medium was removed. […] The cell plates containing lysis buffer were then immediately stored at -70° C. These prepared lysates were then assayed for phospho and total BAD according to the manufacturer's protocols (Meso Scale Diagnostics, Cat#[…]-3 & #[…]-3). The plates were read on the MSD Sector Imager 6000, and results were calculated according to the assay protocols ((% Phosphoprotein=((2×Phospho signal)/(Phospho signal+Total signal))×100)).

[6] = Pim-1 enzyme assay, read-out: Pim_1_IC50
[7] = HTRF, 10-point curve, high dose 1 uM, 45 min at RT
[8] = HTRF, 10-point curve, high dose 1 uM, 2 h at RT, read-out: Pim_1_IC50

full length recombinant Pim-1, sequence (P11309 whole entry): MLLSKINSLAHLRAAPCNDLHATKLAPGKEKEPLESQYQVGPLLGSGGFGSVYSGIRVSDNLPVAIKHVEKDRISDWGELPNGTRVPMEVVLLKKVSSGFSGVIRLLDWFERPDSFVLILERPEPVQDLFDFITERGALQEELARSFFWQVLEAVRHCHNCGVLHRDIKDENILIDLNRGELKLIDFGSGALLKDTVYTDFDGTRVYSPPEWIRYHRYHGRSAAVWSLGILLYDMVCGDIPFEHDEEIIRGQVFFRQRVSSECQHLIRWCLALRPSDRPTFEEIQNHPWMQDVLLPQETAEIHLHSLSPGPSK
full length recombinant Pim-2, sequence (Q9P1W9 whole entry): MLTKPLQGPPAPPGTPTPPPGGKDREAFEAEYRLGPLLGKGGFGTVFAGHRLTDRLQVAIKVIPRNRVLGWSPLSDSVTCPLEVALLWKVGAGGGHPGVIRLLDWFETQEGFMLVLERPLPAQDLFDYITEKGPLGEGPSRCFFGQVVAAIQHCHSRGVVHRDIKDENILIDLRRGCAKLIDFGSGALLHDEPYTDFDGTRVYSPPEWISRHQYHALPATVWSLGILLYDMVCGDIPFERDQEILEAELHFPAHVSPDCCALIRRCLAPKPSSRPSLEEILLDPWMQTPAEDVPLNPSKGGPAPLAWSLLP

SMILES | IC50 ([1]; Pim-2 enzyme assay) | IC50 ([2]; U2OS cells, Pim-2 transfected) | IC50 [3, 6] | IC50 [4] | IC50 ([5]; read-out: U2OS Pim1_Cell_IC50) | IC50 [1, 7] | IC50 [3, 8] | IC50 (KMS-12-BM myeloma cells; read-out: KMS12_IC50) | also measured
CNc1nnc(-c2ccc3[nH]cc(-c4cncc(N5CCCCC5)n4)c3c2)s1 [Example 227, N-methyl-5-(3-(6-(1-piperidinyl)-2-pyrazinyl)-1H-indol-5-yl)-1,3,4-thiadiazol-2-amine] | 0.041 µM | 9.95 µM | 0.00507 µM | 0.00142 µM | 0.121 µM |  |  |  | 
CNc1nnc(-c2ccc3[nH]cc(-c4cccc(-n5cnc(C)c5)n4)c3c2)s1 [Example 228, N-methyl-5-(3-(6-(4-methyl-1H-imidazol-1-yl)-2-pyridinyl)-1H-indol-5-yl)-1,3,4-thiadiazol-2-amine] | 0.00828 µM | > 31.6 µM | 0.0132 µM | 0.0015 µM | > 31.6 µM |  |  |  | 
CNc1nnc(-c2ccc3[nH]cc(-c4cccc(N5CCCC5=O)n4)c3c2)s1 [Example 229, 1-(6-(5-(5-(methylamino)-1,3,4-thiadiazol-2-yl)-1H-indol-3-yl)-2-pyridinyl)-2-pyrrolidinone] | 0.0804 µM | > 31.6 µM | 0.0288 µM | 0.00673 µM | 0.312 µM |  |  |  | 
CCOc1cccc(-c2c[nH]c3ccc(-c4nnc(NC)s4)cc23)n1 [Example 230, 5-(3-(6-ethoxy-2-pyridinyl)-1H-indol-5-yl)-N-methyl-1,3,4-thiadiazol-2-amine] | 0.0631 µM | > 31.6 µM | 0.0309 µM | 0.00713 µM | 0.912 µM |  |  |  | 
CNc1nnc(-c2ccc3[nH]cc(-c4cncc(N(C)C)n4)c3c2)s1 [Example 231, N,N-dimethyl-6-(5-(5-(methylamino)-1,3,4-thiadiazol-2-yl)-1H-indol-3-yl)-2-pyrazinamine] | 0.137 µM |  |  | 0.00989 µM | 0.377 µM |  |  |  | IC50 ([2]; U2OS): > 31.6 µM; IC50 [3]: 0.0382 µM
CNc1nnc(-c2ccc3[nH]cc(-c4ccccc4F)c3c2)s1 [Example 235, 5-(3-(2-fluorophenyl)-1H-indol-5-yl)-N-methyl-1,3,4-thiadiazol-2-amine] | 0.782 µM | > 31.6 µM | 0.228 µM | 0.0628 µM | 5.39 µM |  |  |  | 
CSc1nnc(-c2ccc3[nH]cc(-c4cccc(N5CCOCC5)n4)c3c2)s1 [Example 243, 5-(5-(methylsulfanyl)-1,3,4-thiadiazol-2-yl)-3-(6-(4-morpholinyl)-2-pyridinyl)-1H-indole] | 2.82 µM | > 31.6 µM | 0.223 µM | 0.0852 µM |  |  |  |  | IC50 ([5]; read-out: U2OS Pim1_Cell_IC50, U2OS cells, Pim-1 transfected): 6.33 µM
CC(C)Oc1cccc(-c2c[nH]c3ccc(-c4nnco4)cc23)n1 [Example 244, 3-(6-(1-methylethoxy)-2-pyridinyl)-5-(1,3,4-oxadiazol-2-yl)-1H-indole] | 0.0854 µM | 12.2 µM | 0.0248 µM | 0.0151 µM | 0.31 µM |  |  |  | 
c1cc2[nH]cc(-c3cncc(C4CC4)n3)c2cc1-c1nnc(N2CCNCC2)o1 [Example 246, 3-(6-cyclopropyl-2-pyrazinyl)-5-(5-(1-piperazinyl)-1,3,4-oxadiazol-2-yl)-1H-indole] | 0.0215 µM | > 31.6 µM | 0.00419 µM | 0.00711 µM | 0.45 µM |  |  |  | 
c1cc2[nH]cc(-c3cncc(C4CC4)n3)c2cc1-c1nnc(NC2CNC2)o1 [Example 247, N-3-azetidinyl-5-(3-(6-cyclopropyl-2-pyrazinyl)-1H-indol-5-yl)-1,3,4-oxadiazol-2-amine] | 0.00105 µM | > 31.6 µM | 0.00134 µM | 0.000346 µM | 1.94 µM |  |  |  | 
c1ccc(-c2nnc(-c3ccc4[nH]cc(-c5cncc(C6CC6)n5)c4c3)o2)cc1 [Example 254, 3-(6-cyclopropyl-2-pyrazinyl)-5-(5-phenyl-1,3,4-oxadiazol-2-yl)-1H-indole] | > 1 µM | 0.808 µM | 0.175 µM | 0.138 µM | > 15.8 µM |  |  |  | 
CC(C)Nc1nnc(-c2ccc3[nH]cc(-c4nccc(C5CC5)n4)c3c2)o1 [Example 264, 5-(3-(4-cyclopropyl-2-pyrimidinyl)-1H-indol-5-yl)-N-(1-methylethyl)-1,3,4-oxadiazol-2-amine] | 0.00139 µM | 0.238 µM | 0.0014 µM | 0.000435 µM | 0.0258 µM |  |  |  | 
CC(C)Nc1nnc(-c2cc3c(-c4nccc(C5CC5)n4)c[nH]c3cc2F)o1 [Example 279, 5-(3-(4-cyclopropyl-2-pyrimidinyl)-6-fluoro-1H-indol-5-yl)-N-(1-methylethyl)-1,3,4-oxadiazol-2-amine] |  |  |  |  |  | 0.00188 µM | 0.00238 µM | 0.746 µM | 
CC(C)Nc1nnc(-c2cc3c(-c4cncc(C5CC5)n4)c[nH]c3cc2F)o1 [Example 280, 5-(3-(6-cyclopropyl-2-pyrazinyl)-6-fluoro-1H-indol-5-yl)-N-(1-methylethyl)-1,3,4-oxadiazol] |  |  |  |  |  | 0.00804 µM |  | 3.83 µM | IC50 [3]: 0.00471 µM
CC(C)Nc1nnc(-c2ccc3[nH]cc(-c4ncc(C(N)=O)c(C5CC5)n4)c3c2)o1 [Example 281, 4-cyclopropyl-2-(5-(5-((1-methylethyl)amino)-1,3,4-oxadiazol-2-yl)-1H-indol-3-yl)-5-pyrimidinecarboxamide] |  |  |  |  |  | 0.00215 µM | 0.00119 µM | 1.28 µM | 
CC(C)Nc1nccc(-c2c[nH]c3ccc(-c4nnc(NC(C)C)o4)cc23)n1 [Example 287, N-isopropyl-5-(3-(2-(isopropylamino)pyrimidin-4-yl)-1H-indol-5-yl)-1,3,4-oxadiazol-2-amine] |  |  |  |  |  |  | 0.00415 µM |  | IC50 [1]: 0.0111 µM; IC50 (KMS-12-BM myeloma cells; read-out: KMS12_IC50 (uM)): 1.56 µM
CC(C)Nc1nc(-c2c[nH]c3ccc(-c4nnc(NC(C)C)o4)cc23)cc(=O)[nH]1 [Example 288, 2-(isopropylamino)-6-(5-(5-(isopropylamino)-1,3,4-oxadiazol-2-yl)-1H-indol-3-yl)pyrimidin-4(3H)-one] |  |  |  |  |  | 0.0143 µM | 0.00244 µM | 4.2 µM | 
CC(C)Nc1nnc(-c2ccc3[nH]cc(NC(=O)C4CC4)c3c2)o1 [Example 291, N-(5-(5-(isopropylamino)-1,3,4-oxadiazol-2-yl)-1H-indol-3-yl)cyclopropanecarboxamide] |  |  |  |  |  | 0.0256 µM | 0.0531 µM | 1.44 µM | 
CC(C)Nc1nnc(-c2ccc3[nH]cc(-c4cc(=O)[nH]c(C5CC5)n4)c3c2)o1 [Example 300, 2-cyclopropyl-6-(5-(5-((1-methylethyl)amino)-1,3,4-oxadiazol-2-yl)-1H-indol-3-yl)-4(3H)-pyrimidinone] |  |  |  |  |  | 0.00224 µM | 0.0012 µM | 1.44 µM | 
CC(C)Nc1nnc(-c2ccc3[nH]cc(-c4ccnc(C5CC5)n4)c3c2)o1 [Example 301, 5-(3-(2-cyclopropyl-4-pyrimidinyl)-1H-indol-5-yl)-N-(1-methylethyl)-1,3,4-oxadiazol-2-amine] |  |  |  |  |  | 0.00465 µM | 0.00254 µM | 0.945 µM | 
